The results in this text go back to patent US20170198011A1, “COMPOSITION FOR TREATING SEPSIS OR SEPTIC SHOCK COMPRISING THE PEPTIDE ORIGINATED FROM THE SMAD6” (Medpacto, Inc., priority 2011, published 2017).

Assay [1] concerns IL6 inflammatory gene. In words: LPS-induced IL-6 expression in RAW264.7 cells by quantitative real-time RT-PCR. It is filed as cell-based. The conditions noted are these: RAW264.7 mouse macrophages, pre-treatment, then LPS. The protocol:
FIG. 4A is a graph showing IL-6 levels in RAW264.7 cells as measured by quantitative real-time RT-PCR after treatment with scrambled peptides (Pal-Scram; 100 nM) or Smaducin-6 and then with LPS,

Assay [2] deals with bacteria in peritoneal fluid. The assay can be described thus: Bacterial count in peritoneal fluid of CLP mice. It counts as in vivo. The conditions noted are these: subcutaneous injection, versus scrambled peptides. An excerpt:
FIG. 7A is a graph showing cell counts in the peritoneal fluid taken from sepsis mice treated with scrambled peptides or Smaducin-6,
In mice with CLP-induced sepsis, the bacterial clearance of Smaducin-6 was examined. Smaducin-6 or the scrambled peptides were subcutaneously injected into CLP mice from which peritoneal fluid was then extracted from the mice, and bacteria in the fluid was counted. […] An examination was made to see whether this bacterial clearance of Smaducin-6 was attributed to the intraperitoneal migration of neutrophils. To this end, 2 and 14 hrs after induction of septic shock by injecting 60 mg/kg of LPS, Smaducin-6 or the scrambled peptides were injected into septic shock mice, and 24 hrs after the induction of septic shock, neutrophils were isolated from the peritoneal cavity using Histopaque-1077 (Sigma). Mouse neutrophils were counted using Trypan Blue (Sigma).

The test system of assay [3] is inflammatory cytokines. The assay can be described thus: Blood cytokine levels by ELISA in mice with CLP-induced sepsis. Conditions: blood 24 hrs after CLP. It counts as in vivo. The source says: FIG. 6A to 6I show levels of cytokines in blood samples from mice subcutaneously injected twice with Smaducin-6 or scrambled peptides at 2 and 14 hrs after CLP induction, as analyzed by ELISA, the blood samples being taken 24 hrs after CLP induction, and
In animal models of CLP-induced sepsis, Smaducin-6 was examined for ability to downregulate inflammatory cytokines. Blood samples were taken from each experimental group, and various cytokines and chemokines related with inflammatory responses were quantitatively measured. To the mice with CLP-induced sepsis, the peptide of the present invention was injected 2 and 14 hrs after CLP, and blood samples were collected 24 hrs after CLP. Levels of cytokines and chemokines in the blood samples were determined by ELISA using various antibodies according to the manufacturer's protocol. The antibodies used in this ELISA included mouse IL-6 (88-7064), IFN-γ (88-7314), TNF-α (88-7346), IL-4 (88-7044), IL-10 (88-7104), TGF-β1 (88-7344), IL-12 p70 (88-7121) and IL-17A (88-7371) ELISA Ready-SET-GO from eBioscience, Mouse IL-1β ELISA Set (559603) from BD Sciences, Mouse CXCL2/MIP-2 Immunoassay (MM200) from R&D Systems, and Mouse IFN-β ELISA Kit from PBL Biomedical Laboratories.

Assay [4] has as its system GRK2. The assay can be described thus: LPS-induced GRK2 expression in RAW264.7 macrophages (immunoblot). It is filed as cell-based, mouse. The conditions noted are these: RAW264.7 cells, 100 nM for 2 hrs, then LPS 2 hrs. Here is the method: To examine how Smaducin-6 interrupts with the LPS-induced downregulation of CXCR2, the levels of G-protein-coupled receptor kinase 2 (GRK2) in human neutrophils and RAW264.7 macrophages were measured. GRK2 is upregualted by LPS, which is known to suppress the expression of CXCR2.

The subject of assay [5] is BALB/c mice with LPS-induced septic shock. In words: Survival of mice with LPS-induced septic shock. It counts as in vivo. The conditions noted are these: LPS 60 mg/kg intraperitoneal, 16 mg/kg injected four times every 12 hrs from 2 hrs after LPS. The protocol: FIG. 5D is a graph showing survival rates of BALB/c mice treated with 16 mg/kg Smaducin-6 or scrambled peptides after septic shock is induced by LPS;
Moreover, therapeutic effects of Smaducin-6 were examined in animal models of septic shock as well as CLP-induced sepsis. In this regard, LPS was intraperitoneally injected at a dose of 60 mg/kg into BALB/c mice, and from two hrs after LPS injection, Smaducin-6 was injected four times at regular intervals of 12 hrs into the mice.

The test system of assay [6] is IL-6. The assay can be described thus: IL-6 immunoblot in spleen and liver of CLP mice. It is filed as in vivo. Conditions: immunoblotting.
In assay [7] the test system is BALB/c mice with CLP-induced sepsis. The assay can be described thus: Survival of mice with CLP-induced sepsis. It is filed as in vivo. The protocol:
For use in assay for therapeutic effects of Smaducin-6 on sepsis, BALB/c mice were subjected to CLP (cecal ligation puncture) to prepare suitable animal models of clinical sepsis. Two hours after CLP operation on the mice, Smaducin-6 was subcutaneously injected at a dose of 8 mg/kg, 12 mg/kg, or 16 mg/kg to the mice, and then three more times at regular intervals of 12 hrs. […] In this context, Smaducin-6 was initially injected at a dose of 16 mg/kg 2, 4, or 10 hrs after CLP operation, and then three more times at regular intervals of 12 hrs. Further, cells from various tissues of CLP mice were stained with hematoxylin-eosin to observe nucleus and cell morphology.

Assay [8] has as its system NF-κB. The assay can be described thus: NF-κB-mediated downstream signaling in LPS-stimulated RAW264.7 cells (luciferase, immunoblots). It is filed as cell-based, mouse. Here is the method: FIG. 4B is a graph showing luciferase activity in RAW264.7 cells transfected with a 5×NF-κB-Luc plasmid after treatment with scrambled peptides (Pal-Scram; 100 nM) or Smaducin-6 and then with LPS,

Assay [9] relates to IFN-β1. The assay can be described thus: IFN-β1 in peritoneal fluid (ELISA) and splenocytes (FACS) of CLP mice. It is filed as in vivo. Conditions: injected 2 and 14 hrs after CLP. An excerpt:
FIG. 8C is a graph showing levels of the IFN-β1cytokine in peritoneal fluid from mice subcutaneously injected with Smaducin-6 or scrambled peptides at 2 and 14 hrs after sepsis induction by CLP, as analyzed by ELISA, the peritoneal fluid being taken 24 hrs after CLP induction,
FIG. 8D is a graph showing expression levels of IFN-β1 in splenocytes of mice subcutaneously injected with Smaducin-6 or scrambled peptides at 2 and 14 hrs after sepsis induction by CLP, as measured by FACS, the splenocytes being taken 24 hrs after sepsis induction,
To analysis the mechanism of the anti-apoptotic activity of Smaducin-6, an examination was made of the IFN-β1-induced TRAIL expression. In this regard, 2 and 14 hrs after CLP, the scrambled peptides or the Smaducin-6 peptide was injected to the mice, and the expression of IFN-β1 in the peritoneal fluid from the mice was analyzed using ELISA in the same manner as in Example 6. In splenocytes from each mouse group, the expression level of IFN-β1 was determined using flow cytometry (FACS). For flow cytometry, IFN-β1 was detected by FITC-conjugated anti-mouse IFN-β antibody (22400-3, interferon source), and stained before data analysis using CellQuest Pro software (BD Bioscience).

The mark [10] stands for this setting: injected 2 and 14 hrs after CLP.

Where no end group is shown, it is not given here. The star is where a group is joined. Palmitoyl = CCCCCCCCCCCCCCCC(=O)*

Consider “Smaducin-6: palmitic acid conjugated to N-terminus of the 20-amino-acid peptide of Smad6 position 422 to 441, GGRALVVRKVPPGYSIKVFD (SEQ ID NO: 1) (Palmitoyl-GGRALVVRKVPPGYSIKVFD)”, for which the “expression of LPS-induced IL6 inflammatory gene” value in assay [1] is recorded as “reduced the expression of LPS-induced IL6 inflammatory gene in a dose-dependent manner”. Further, the “number of bacteria in the peritoneal fluid” value in [2] is on record as “significantly lower”. Besides, in assay [3] (setting [10]), the “level of IFN-γ in the blood” value is reported as “significantly reduced”, the “level of IL-1β in the blood” value is on record as “significantly reduced”, the “level of IL-6 in the blood” value is reported as “significantly reduced” and the “level of TNF-α in the blood” value is reported as “significantly reduced”. Moreover, in assay [3] (versus scrambled peptide), the “level of IL-4 in the blood” value is recorded as “no statistically significant changes”, the “level of IL-10 in the blood” value was “no statistically significant changes”, the “level of IL-12 in the blood” value was “no statistically significant changes” and the “level of IL-17A in the blood” value is on record as “no statistically significant changes”. Besides, the “level of TGF-β1 in the blood” value in [3] (versus scrambled peptide) is “no statistically significant changes”. In addition, the “LPS-induced GRK2 expression” value in assay [4] was “downregualed”. Besides, the “survival in LPS-induced septic shock” value in [5] was “therapeutic”. Besides, the “IL-6 expression in the spleen and the liver” value in assay [6] is given as “reduce”. Further, in assay [7] (12 mg/kg subcutaneous, first injection 2 hrs after CLP, three more times every 12 hrs (FIG. 5A)), the “survival rate of CLP mice” value came to 70%. Besides, in assay [7] (16 mg/kg subcutaneous, first injection 2 hrs after CLP, three more times every 12 hrs (FIG. 5A)), the “survival rate of CLP mice” value came out at 90%. Also, in [7] (16 mg/kg, initial injection 2 hrs after CLP (FIG. 5B)), the “survival rate of CLP mice” value is 90%. In assay [7] (16 mg/kg, initial injection 4 hrs after CLP (FIG. 5B)), the “survival rate of CLP mice” value was 60%. Also, the “NF-κB-mediated luciferase gene expression” value in assay [8] (5xNF-κB-Luc) is given as “suppress”. Also, in [8] (immunoblot), the IKKα/β phosphorylation entry was “suppress” and the IκBα degradation result is “suppress”. Also, the “production of IFN-β1 in peritoneal fluid” value in assay [9] (ELISA (FIG. 8C)) is “inhibited”. The “expression level of IFN-β1 in splenocytes” value in assay [9] (FACS (FIG. 8D)) is recorded as “inhibited”.
